The target in experiment [1] is T1, yPDE2 (high-affinity phosphodiesterase type 2) (Saccharomyces cerevisiae, UniProt P06776).
T1 construct: gene PDE2
T1 sequence (P06776 1-526): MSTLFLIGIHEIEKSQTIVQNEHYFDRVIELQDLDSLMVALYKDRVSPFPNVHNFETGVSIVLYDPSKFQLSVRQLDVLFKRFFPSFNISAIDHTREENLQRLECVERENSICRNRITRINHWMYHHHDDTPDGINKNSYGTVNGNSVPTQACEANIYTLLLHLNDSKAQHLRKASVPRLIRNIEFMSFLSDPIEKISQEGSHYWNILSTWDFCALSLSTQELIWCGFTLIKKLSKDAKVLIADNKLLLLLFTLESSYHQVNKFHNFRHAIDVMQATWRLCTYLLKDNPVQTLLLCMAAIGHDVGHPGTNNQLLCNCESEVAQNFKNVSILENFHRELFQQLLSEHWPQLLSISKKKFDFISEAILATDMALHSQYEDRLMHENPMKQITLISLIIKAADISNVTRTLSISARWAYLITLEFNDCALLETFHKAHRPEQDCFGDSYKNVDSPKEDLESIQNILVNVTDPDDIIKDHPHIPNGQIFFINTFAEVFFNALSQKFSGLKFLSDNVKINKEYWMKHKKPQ
Briefly: HPLC-UV assay of cAMP hydrolysis; Ki converted from I50 (competitive equation). The experiment is classed as biochemical. As to conditions: read-out: Inhibitors.

Experiment [2] concerns the target T1, yPDE2 (high-affinity phosphodiesterase type 2). Briefly: HPLC-UV assay of cAMP hydrolysis; Lineweaver-Burk and Km app/Km plot at several inhibitor concentrations. The experiment is classed as biochemical. As to conditions: read-out: Inhibitors.

On to `Oc1cc(O)cc(/C=C/c2ccc(O)cc2O)c1` [oxyresveratrol], for which the Ki in experiment [1] came out at 46 ± 4 µM. `Oc1cc(O)cc(/C=C/c2ccc(O)c(O)c2)c1` [piceatannol]: the Ki in experiment [1] was 50 ± 5 µM. With `Oc1ccc(/C=C/c2cc(O)cc(O)c2)cc1` [resveratrol], the Ki in experiment [2] stood at 63 ± 3 µM. On to `O=C(Nc1c(Cl)cncc1Cl)c1ccc(OC(F)F)c(OCC2CC2)c1` [roflumilast], for which the Ki in experiment [1] stood at 0.3 ± 0.02 µM.

The record behind these values is article PMC7559934, “Characterization of Resveratrol, Oxyresveratrol, Piceatannol and Roflumilast as Modulators of Phosphodiesterase Activity. Study of Yeast Lifespan” (Pharmaceuticals, 2020).
